Here are results for 19 compounds from EP0312245A2, “Polycyclic compounds and pharmaceutical compositions thereof” (NORISTAN HOLDINGS LIMITED, priority 1987, dated 1989).

Where two headings read alike, the source gives them in different places.

Assay [1] deals with isolated rabbit ear preparation. As to the kind of experiment: Rabbit ear perfusion test (adrenaline-induced tone, perfusion pressure). As for the experimental part:
Female New Zealand White rabbits (approximately 4kg) were anaesthetised with Sagatal ® (0.5ml/kg).
The central ear artery was cannulated using a 20 G catheter and the ear cut off at its base. Heparinised (5ml, 200 IU;ml) Krebs bicarbonate solution was perfused through the ear to expel the blood. The ear was placed in a warming jacket at 37°C and attached via the arterial catheter to the perfusion pump. Perfusion of the ear with aerated (95% 025% C02)Krebs bicarbonate solution at 37° C was commenced at a rate of 6.5ml/min using a Watson Marlow peristaltic pump. The perfusion pressure was monitored continuously using a pressure transducer (Type 4-327-1221, Consoliated Electrodynamics) coupled to a Devices Recorder.
Following an equilibration period of 15 minutes, increased tone was induced in the preparation by addition of adrenaline (1µg/ml) to the perfusion fluid.
After a stable tone was observed, various concentrations of test compounds were injected into the perfusion fluid and examined for their effect on the perfusion pressure. The effect of vehicle (0.2ml, 50% Krebs 50% ethanol) was also tested on the ear preparation.

Assay [2] deals with guinea-pig papillary muscle. As to the kind of experiment: Electrophysiological test: action potential of guinea-pig papillary muscle (microelectrode technique). The conditions noted are these: for TIME 1 (Shortest time needed to attain suppression) / TIME 2 (Shortest time needed for reversal of effect by washing out of compound): at the listed bath concentration; for DEGREE OF SUPPRESSION: suppression of action potential at the listed bath concentration; for minimal effective concentration: Cavia porcellus. As for the experimental part:
Electrophysiological studies were conducted on guinea-pig papillary muscle.
Using a microelectrode technique, action potentials were measured from guinea-pig papillary muscles. Action potentials were evoked by electrical stimulation (platinum electrode, Grass S88 stimulator, 1 Hz stimulation frequency; voltage, 10% above threshold). […] The preparations were electrically driven (pacing intervals 1 s, duration 2-5 ms). Slow (Ca2+ mediated) action potentials were evoked in a depolarizing solution (22 mmol/l K and 5 mmol/I Ca^2+) at 0,35 Hz stimulation frequency in order to ensure complete removal of inactivation of slow inward current.

Setting [3] is: Oryctolagus cuniculus, Table 5, dose 100 µg, read-out: Mean % change in perfusion pressure.
[4] abbreviates: Oryctolagus cuniculus, Table 5, dose 316 µg, read-out: Mean % change in perfusion pressure.
[5] abbreviates: Oryctolagus cuniculus, Table 5, dose 1000 µg, read-out: Mean % change in perfusion pressure.
[6] abbreviates: Oryctolagus cuniculus, Table 5, dose 3160 µg, read-out: Mean % change in perfusion pressure.
The mark [7] stands for this setting: read-out: BATH CONCENTRATION (Lowest concentration of the compound to induce suppression of action potential), Table 3, guinea-pig papillary muscle.
[8] abbreviates: read-out: BATH CONCENTRATION (Lowest concentration of the compound to induce suppression of action potential), Table 4, racemates and optical isomers.

Take `CC(C)CNC12OC3C4C5CC(C6C5C3C61)C42` (racemic) [Compound 15, 8-Isobutylamino-8,11-oxopentacyclo [5.4.0.0^2,60^3,10.0^5,9]-undecane]: the inhibition at 0.1 mg in assay [1] (setting [3]) is 6.5%. Moreover, in assay [1] (setting [4]), the inhibition at 0.316 mg turned out to be 8.5%. For the same compound, in assay [1] (setting [5]), the inhibition at 1 mg is 7%. Further, the inhibition at 3.16 mg in assay [1] (setting [6]) is 21%. Besides, the “Mean time taken to return to pre-dose volume” value (shortened to “Mean time taken to return”) in assay [1] (Table 5, dose 3160 µg) came to 2.5 min.
As to `c1ccc(CNC23OC4C5C6CC(C7C6C4C72)C53)cc1` (single isomer, unassigned) [(+) -4, 8-benzylamino-8,11-oxopentacyclo [5.4.0.0^2,6.0^3,10.0^5,9]undecane], in assay [2] (Table 4), the “TIME 1 (Shortest time needed to attain suppression)” value was found to be 20 min, the “TIME 2 (Shortest time needed for reversal of effect by washing out of compound)” value is 15 min and the “DEGREE OF SUPPRESSION” value is listed as “complete”.
Regarding `CCCCNC12OC3C4C5CC(C6C5C3C61)C42` (racemic) [Compound 2, 8-η-Butylamino-8,11-oxopentacyclo[5.4.0.0^2,6 .0^3,10 .0^5,9]undecane], in assay [1] (setting [3]), the inhibition at 0.1 mg was 7.5%. Further, the inhibition at 0.316 mg in assay [1] (setting [4]) was 8%. For the same compound, the inhibition at 1 mg in assay [1] (setting [5]) turned out to be 12%. The inhibition at 3.16 mg in assay [1] (setting [6]) turned out to be 26%. The “Mean time taken to return” value is listed as 5.5 min in assay [1] (Table 5, dose 1000 µg) and 5.75 min in assay [1] (Table 5, dose 3160 µg). Moreover, the minimal effective concentration in assay [2] (setting [7]) and in assay [2] (setting [8]) was 150 µM throughout. Besides, the figures for the “TIME 1 (Shortest time needed to attain suppression)” value in assay [2] (Table 3) and in assay [2] (Table 4) were 29 min and 25 min, respectively. The “DEGREE OF SUPPRESSION” value is “very little” in assay [2] (Table 3) and “little” in assay [2] (Table 4).
For the compound “1(or7)-Methyl-8-(2-phenylethyl)-amino-8,11-oxopentacyclo [5.4.0.0^2,6.0^3,1.0^5,9 ]undecane [Compound 11]”, in assay [2] (Table 3), the “TIME 1 (Shortest time needed to attain suppression)” value was 32 min, the “TIME 2 (Shortest time needed for reversal of effect by washing out of compound)” value is 35 min and the “DEGREE OF SUPPRESSION” value was “partial”.
On to `c1ccc(CCCNC23OC4C5C6CC(C7C6C4C72)C53)cc1` (racemic) [Compound 6, 8-(3-Phenylpropyl)-amino-8,11-oxopentacyclo [5.4.0.0^2,6.0^3,10.0^5,9] undecane], for which the minimal effective concentration in assay [2] (setting [7]) was 50 µM. In assay [2] (Table 3), the “TIME 1 (Shortest time needed to attain suppression)” value was found to be 18 min, the “TIME 2 (Shortest time needed for reversal of effect by washing out of compound)” value was 14 min and the “DEGREE OF SUPPRESSION” value is “complete”.
On to “1(or7)-Methyl-8-η-butylamino-8,11-oxopentacyclo[5.4.0.0^2,6.0^3,10.0^5,9]undecane [Compound 8]”, for which, in assay [2] (Table 3), the “TIME 1 (Shortest time needed to attain suppression)” value was determined as 22 min, the “TIME 2 (Shortest time needed for reversal of effect by washing out of compound)” value was found to be 6 min and the “DEGREE OF SUPPRESSION” value is “complete”.
In the case of `CCCCCCCCCCCCNC12OC3C4C5CC(C6C5C3C61)C42` (racemic) [Compound 14, 8-η -Dodecylamino-8,11-oxopentacyclo [5.4.0.0^2,6.0^3,10.0^5,9]undecane], in assay [1] (Oryctolagus cuniculus, Table 7, dose 31.6 μg, read-out: Mean % change in perfusion pressure), the inhibition at 0.0316 mg came to 6.1%. Also, in assay [1] (Oryctolagus cuniculus, Table 7, dose 100 μg, read-out: Mean % change in perfusion pressure), the inhibition at 0.1 mg is 12.4%. In addition, the inhibition at 0.316 mg in assay [1] (Oryctolagus cuniculus, Table 7, dose 316 μg, read-out: Mean % change in perfusion pressure) stood at 8.7%. Besides, the inhibition at 1 mg in assay [1] (Oryctolagus cuniculus, Table 7, dose 1000 μg, read-out: Mean % change in perfusion pressure) came to 6.6%. In addition, the inhibition at 3.16 mg in assay [1] (Oryctolagus cuniculus, Table 7, dose 3160 μg, read-out: Mean % change in perfusion pressure) was 7.7%.
Regarding `CCCCCCCCNC12OC3C4C5CC(C6C5C3C61)C42` (single isomer, unassigned) [(+) -3, 8-η -octylamino-8,11-oxopentacyclo [5.4.0.0^2,6.0^3,10.0^5,9]undecane], in assay [2] (Table 4), the “TIME 1 (Shortest time needed to attain suppression)” value amounted to 30 min, the “TIME 2 (Shortest time needed for reversal of effect by washing out of compound)” value is 11 min and the “DEGREE OF SUPPRESSION” value is recorded as “incomplete”.
Take “1(or 7)-Methyl-8-methylamino-8,11-oxopentacyclo[5.4.0.0^2,6.0^3,10.0^5,9] undecane [Compound 7]”: in assay [2] (Table 3), the “TIME 1 (Shortest time needed to attain suppression)” value amounted to 12 min and the “DEGREE OF SUPPRESSION” value is on record as “very little”.
As to `CCCCNC12OC3C4C5CC(C6C5C3C61)C42` (single isomer, unassigned) [(-) -2, 8-η -butylamino-8,11-oxopentacyclo [5.4.0.0^2,6.0^3,10.0^5,9] undecane], in assay [2] (setting [8]), the minimal effective concentration stood at 130 µM. In assay [2] (Table 4), the “TIME 1 (Shortest time needed to attain suppression)” value is 25 min and the “DEGREE OF SUPPRESSION” value is recorded as “little”.
For the compound `CCCCCCCCNC12OC3C4C5CC(C6C5C3C61)C42` (single isomer, unassigned) [(-) -3, 8-η -octylamino-8,11-oxopentacyclo [5.4.0.0^2,6.0^3,10.0^5,9]undecane], in assay [2] (Table 4), the “TIME 1 (Shortest time needed to attain suppression)” value was determined as 10 min, the “TIME 2 (Shortest time needed for reversal of effect by washing out of compound)” value amounted to 7 min and the “DEGREE OF SUPPRESSION” value is reported as “complete”.
For the compound `CCNC12OC3C4C5CC(C6C5C3C61)C42` (racemic) [Compound 13, 8-Ethylamino-8,11-oxopentacyclo [5.4.0.0^2,6.0^3,10.0^5,9]undecane], the inhibition at 0.1 mg in assay [1] (setting [3]) was found to be 6%. Further, the inhibition at 0.316 mg in assay [1] (setting [4]) worked out at 7%. In addition, the inhibition at 1 mg in assay [1] (setting [5]) came to 5.5%. In addition, the inhibition at 3.16 mg in assay [1] (setting [6]) worked out at 11.5%. The “Mean time taken to return” value in assay [1] (Table 5, dose 3160 µg) was 2.0 min.
With “1(or7)-Methyl-8-benzylamino-8,11-oxopentacyclo [5.4.0.0^2,6.0^3,10.0^5,9 ]undecane [Compound 10]”, in assay [2] (Table 3), the “TIME 1 (Shortest time needed to attain suppression)” value worked out at 20 min, the “TIME 2 (Shortest time needed for reversal of effect by washing out of compound)” value worked out at 10 min and the “DEGREE OF SUPPRESSION” value is recorded as “complete”.
For the compound `CCCCNC12OC3C4C5CC(C6C5C3C61)C42` (single isomer, unassigned) [(+) -2, 8-η -butylamino-8,11-oxopentacyclo [5.4.0.0^2,6.0^3,10.0^5,9] undecane], in assay [2] (Table 4), the “TIME 1 (Shortest time needed to attain suppression)” value turned out to be 25 min and the “DEGREE OF SUPPRESSION” value is “very little”.
As for “1 (or7)-Methyl-8-(3-phenylpropyl)-amino-8,11-oxopentacyclo[5.4.0.0^2,6.0^3,10.0^5,9 ]undecane [Compound 12]”, in assay [2] (Table 3), the “TIME 1 (Shortest time needed to attain suppression)” value amounted to 12 min, the “TIME 2 (Shortest time needed for reversal of effect by washing out of compound)” value worked out at 20 min and the “DEGREE OF SUPPRESSION” value was “complete”.
As for `c1ccc(CNC23OC4C5C6CC(C7C6C4C72)C53)cc1` (racemic) [Compound 4, 8-Benzylamino-8,11-oxopentacyclo[5.4.0.0^2,6 .0^3,10 .0^5,9]undecane], the minimal effective concentration in assay [2] (setting [7]) was 20 µM. For the same compound, the minimal effective concentration in assay [2] (setting [8]) stood at 20 µM. Besides, in assay [2] (Table 3), the “TIME 1 (Shortest time needed to attain suppression)” value stood at 15 min, the “TIME 2 (Shortest time needed for reversal of effect by washing out of compound)” value was 10 min and the “DEGREE OF SUPPRESSION” value was “complete”. Besides, in assay [2] (Table 4), the “TIME 1 (Shortest time needed to attain suppression)” value came to 15 min, the “TIME 2 (Shortest time needed for reversal of effect by washing out of compound)” value was found to be 10 min and the “DEGREE OF SUPPRESSION” value was “complete”.
As to `COc1ccc(CCN(C)CCCC(C#N)(c2ccc(OC)c(OC)c2)C(C)C)cc1OC` (stereo not drawn) [Verapamil, reference compound], in assay [2] (setting [7]), the minimal effective concentration is 40 µM. Further, in assay [2] (Table 3), the “TIME 1 (Shortest time needed to attain suppression)” value came to 10 min, the “TIME 2 (Shortest time needed for reversal of effect by washing out of compound)” value amounted to 15 min and the “DEGREE OF SUPPRESSION” value was “complete”.
Regarding `CNC12OC3C4C5CC(C6C5C3C61)C42` (racemic) [Compound 1, 8-Methylamino-8,11-oxopentacyclo[5.4.0.0^2,6 .0^3,10 .0^5,9]-undecane], in assay [2] (setting [7]), the minimal effective concentration is 120 µM. In addition, in assay [2] (Table 3), the “TIME 1 (Shortest time needed to attain suppression)” value amounted to 25 min and the “DEGREE OF SUPPRESSION” value is given as “very little”.
As to `c1ccc(CNC23OC4C5C6CC(C7C6C4C72)C53)cc1` (single isomer, unassigned) [(-) -4, 8-benzylamino-8,11-oxopentacyclo [5.4.0.0^2,6.0^3,10.0^5,9]undecane], the minimal effective concentration in assay [2] (setting [8]) is 56.6 µM. In assay [2] (Table 4), the “TIME 1 (Shortest time needed to attain suppression)” value came to 10 min, the “TIME 2 (Shortest time needed for reversal of effect by washing out of compound)” value was 5 min and the “DEGREE OF SUPPRESSION” value is listed as “complete”.
